{
  "source": "paper PMC9916866",
  "about": "(International Journal of Molecular Sciences, 2023)",
  "key": {"AT2 receptor": {"system": "T1, AT2 receptor", "T1 construct": "expressed in transfected cells", "assay_type": "binding, rat"}, "AT1 receptor [1]": {"biological_target": "T2, AT1 receptor (Homo sapiens, UniProt P30556)", "T2 sequence (P30556 1-359)": "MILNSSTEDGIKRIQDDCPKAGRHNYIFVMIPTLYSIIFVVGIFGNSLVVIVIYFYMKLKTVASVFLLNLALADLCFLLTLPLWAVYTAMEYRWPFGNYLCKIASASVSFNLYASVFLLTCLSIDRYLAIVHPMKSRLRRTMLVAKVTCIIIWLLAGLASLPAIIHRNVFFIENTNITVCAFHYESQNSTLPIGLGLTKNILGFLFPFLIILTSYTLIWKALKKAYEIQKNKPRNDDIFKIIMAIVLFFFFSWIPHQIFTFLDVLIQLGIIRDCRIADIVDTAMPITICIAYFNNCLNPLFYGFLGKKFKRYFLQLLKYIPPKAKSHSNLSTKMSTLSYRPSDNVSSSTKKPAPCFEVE", "assay": "cell-based", "assay_type": "cell-based", "parameters": "expressed in transfected cells; host or cells: HEK293T"}, "AT1 receptor [2]": {"biological_target": "T2, AT1 receptor", "assay_type": "cell-based", "parameters": "expressed in transfected cells; host or cells: HEK293T"}, "AT1 receptor [3]": {"biological_target": "T2, AT1 receptor"}},
  "data": [
    {"smiles": "CC[C@H](C)[C@H](NC(=O)[C@H](Cc1ccc(O)cc1)NC(=O)[C@@H](NC(=O)[C@H](CCCNC(=N)N)NC(=O)[C@@H](N)CC(=O)O)C(C)C)C(=O)N[C@@H](Cc1c[nH]cn1)C(=O)N1CCC[C@H]1C(=O)N[C@@H](Cc1ccccc1)C(=O)O", "note": "[AngII, angiotensin II]", "values": [
      {"measurement": "non-specific labelling of cells compared to total labelling with Cy5-AngII alone, AT2", "setting": "AT2 receptor", "value": 7, "unit": "%"}
    ]},
    {"smiles": "CCOc1nc2cccc(C(=O)O)c2n1Cc1ccc(-c2ccccc2-c2nnn[nH]2)cc1", "note": "[candesartan]", "values": [
      {"measurement": "activation of Gαi3 by the substance alone", "setting": "AT1 receptor [1]", "value": "Neither candesartan, an AT1 receptor antagonist, nor the toxin alone could induce the activation of Gαi3"},
      {"measurement": "inhibition of AngII-induced Gαi3 activation, 1 µM candesartan", "setting": "AT1 receptor [1]", "value": "fully inhibited"},
      {"measurement": "activation of GαoA pathway by the substance alone", "setting": "AT1 receptor [2]", "value": "Neither the toxin nor the candesartan alone can induce activation of this pathway"},
      {"measurement": "inhibition of AngII-induced GαoA activation, 1 µM candesartan", "setting": "AT1 receptor [2]", "value": "blocked"},
      {"measurement": "increase in BRET signal (β-arrestin 2 recruitment) by the substance alone", "setting": "AT1 receptor [3]", "value": "Neither the candesartan nor the toxin alone could induce an increase in the BRET signal"},
      {"measurement": "inhibition of AngII-induced β-arrestin 2 BRET signal, 1 µM candesartan", "setting": "AT1 receptor [3]", "value": "completely inhibits"}
    ]}
  ]
}
